The source of these data is patent publication US5869464A, “2'-Deoxy-5-fluorouridine derivatives, a process for their preparation, antitumor agents containing same and methods for using said agents” (Taiho Pharmaceutical Co. Ltd., priority 1993, dated 1999).

Where two headings read alike, the source gives them in different places. Some results are limits rather than exact numbers.

The test system of data set [1] is Yoshida sarcoma cells. The data set is described as follows: Antitumor effect on subcutaneously transplanted Yoshida sarcoma (Pharmacological Test Example 1). The following applies: oral; for ED50: Rattus norvegicus, YOSHIDA, once a day for 7 consecutive days from 24 h after transplantation, 8th day, read-out: ED50 (effective dose for achieving 50% inhibition of tumor growth); for T.I. (therapeutic index = BWC50/ED50): once a day for 7 consecutive days. The format is in vivo, rat (male Donryu/CRJ strain). The method, then:
The compounds of the present invention were tested for antitumor effect.
Rat-transplantable tumor, Yoshida sarcoma cells (2×10^4) were subcutaneously transplanted in the back of male Donryu/CRJ strain rats (weighing 150 to 165 g). The test compounds were suspended in a 0.5% aqueous solution of hydroxypropylmethyl cellulose. Twenty-four hours after the transplantation, each suspension was orally administered to rats (7 rats in each group) in an amount of 1.0 ml per 100 g of rats' body weight once a day for 7 consecutive days. Only a solution of hydroxypropylmethyl cellulose containing no test compound was orally administered to the control group in an amount of 1.0 ml/100 g rats' body weight once a day for 7 consecutive days starting 24 hours after the transplantation.
The rats were sacrificed on the 8th day after the transplantation and their tumors were extirpated. The tumors were weighed to calculate an average tumor weight at each dose. The results were compared between the treated group and the control group. An effective dose (ED50) for achieving 50% inhibition of tumor growth was determined from the dose-tumor reduction curve. A dose of 50% inhibition of body weight gain (BWC50)was determined from the dose-body weight change curve. The therapeutic index (T.I.=BWC50 /ED50) was also determined.

The nature of data set [2]: Inhibition of body weight gain in Yoshida sarcoma-bearing rats (Pharmacological Test Example 1). The following applies: rat, in vivo. Also noted: species or system rat (male Donryu/CRJ strain).
Data set [3] has as its system human kidney cancer strain, JRC-11. The data set is described as follows: Tumor growth inhibition, nude rat-transplantable human kidney cancer strain JRC-11 (Pharmacological Test Example 2(a)). The format is in vivo, human tumor in male F344/N Jcl-rnu nude rat. The following applies: once a day for 14 consecutive days. The text has this: (§1) (a) A tumor piece (about 2 mm^3) of nude rat-transplantable human kidney cancer strain, JRC-11, was subcutaneously transplanted in the armpit of each male F344/N Jcl-rnu nude rat. The treatment of rats (7 rats in each group) started when the rats' tumors grew to an estimated volume of 250 mm^3 as calculated by an equation
wherein L is the length of the tumor and W is the width of the tumor, each being measured by calipers. The treated group (rats to be treated with the test compounds) and the control group were tested under equal conditions concerning the mean value of tumor volume and standard deviation. The test compounds were suspended in a 0.5% aqueous solution of hydroxypropylmethyl cellulose. Each suspension was orally administered to rats in an amount of 1.0 ml per 100 g of rats' body weight once a day for 14 consecutive days. Only a solution of hydroxypropylmethyl cellulose containing no test compound was orally administered to the control group in an amount of 1.0 ml per 100 g rats' body weight once a day for 14 consecutive days.
(§2) A ratio of tumor growth of each rat was calculated from two tumor volumes on the first day of administration and on the day following the last administration. A mean ratio of tumor growth of the group (T) or the control group (C) was calculated from said ratio. Then, a tumor growth inhibition ratio (%) was calculated by the following equation: […]

Data set [4] deals with human stomach cancer strain, H-81. The data set is described as follows: Tumor growth inhibition, nude rat-transplantable human stomach cancer strain H-81 (Pharmacological Test Example 2(b)). The class given is in vivo, human tumor in male F344/N Jcl-rnu nude rat. The note with it: once a day for 14 consecutive days.
Text: as §1
wherein L is the length of the tumor and W is the width of the tumor, each being measured by calipers. The treated group (rats to be treated with the test compounds) and the control group were tested under equal conditions concerning the mean value of tumor volume and standard deviation. The test compounds were suspended in a 0.5% aqueous solution of hydroxypropylmethyl cellulose. […]
as §2
(b) The same experiment as in (a) was conducted except that a nude rat-transplantable human stomach cancer strain, H-81, was used in place of the nude rat-transplantable human kidney cancer strain, JRC-11. A tumor growth inhibition ratio was calculated.

In data set [5] the test system is Yoshida sarcoma cells. The data set can be described thus: Antitumor effect on subcutaneously transplanted Yoshida sarcoma (Pharmacological Test Example 1). The class given is in vivo, rat (male Donryu/CRJ strain). The following applies: for ED50: Rattus norvegicus, YOSHIDA, iv, read-out: ED50 (effective dose for achieving 50% inhibition of tumor growth).
For a further data set, the system named is tumor cells. The note with it: in vitro tests; cited from earlier work.
For data set [6] the following is noted: under the influence of pyrimidine nucleoside phosphorylase; cited from earlier work.
Setting [7] is: CVI: continuous intravenous drip injection.

Broadly, the ED50 is the dose at which the effect has come halfway, by size or by number of responders. For the molecule `CCCOc1nc(=O)n([C@H]2C[C@H](OCc3ccc(F)cc3F)[C@@H](CO)O2)cc1F` [Compound 7], in the data set with Yoshida sarcoma cells [1], the median effective dose (ED50) worked out at 7.5 mg/kg and the “T.I. (therapeutic index = BWC50/ED50)” value was 2.4. In data set [2] (po), the TD50 came to 18 mg/kg.

As for `O=c1[nH]c(=O)n([C@H]2C[C@H](OCc3ccc(Cl)cc3F)[C@@H](CO)O2)cc1F` [Comparative Compound 1, 3'-O-(4-chloro-2-fluorobenzyl)-2'-deoxy-5-fluorouridine], in the data set with Yoshida sarcoma cells [1], the ED50 is 7.5 mg/kg and the “T.I. (therapeutic index = BWC50/ED50)” value was 1.1. The molecule also yielded a TD50 in data set [2] (po) of 8.5 mg/kg.

As for `CCOc1nc(=O)n([C@H]2C[C@H](OCc3ccc(Cl)cc3F)[C@@H](CO)O2)cc1F` [Compound 13, 3'-O-(4-chloro-2-fluorobenzyl)-2'-deoxy-4-O-ethyl-5-fluorouridine], the “Inhibition ratio (%) (tumor growth)” value in data set [3] (3.75 mg/kg oral) is on record as 67%; in data set [3] (7.5 mg/kg oral) it was 73%; in data set [4] (3.75 mg/kg oral), 74%; in data set [4] (7.5 mg/kg oral), 79%.

In the case of `CCCCC(=O)OC[C@H]1O[C@@H](n2cc(F)c(OCc3ccc(F)cc3)nc2=O)C[C@@H]1OC(=O)CCCC` [Comparative Compound 3, 2'-deoxy-4-O-(4-fluorobenzyl)-3',5'-di-O-n-pentanoyl-5-fluorouridine], in the data set with Yoshida sarcoma cells [1], the ED50 is over 40 mg/kg and the “T.I. (therapeutic index = BWC50/ED50)” value is reported as under 1.0. The same molecule came in with a TD50 in data set [2] (po) of 40 mg/kg.

As to `CCCOc1nc(=O)n([C@H]2C[C@H](OCc3ccc(Cl)cc3Cl)[C@@H](CO)O2)cc1F` [Compound 12], in the data set with Yoshida sarcoma cells [1], the ED50 turned out to be 3 mg/kg and the “T.I. (therapeutic index = BWC50/ED50)” value was determined as 5.3. This molecule showed a TD50 in data set [2] (po) of 16 mg/kg.

`CCCOc1nc(=O)n([C@H]2C[C@H](OCc3ccc(Cl)cc3F)[C@@H](CO)O2)cc1F` [Compound 3]: in the data set on Yoshida sarcoma cells [1], the ED50 worked out at 4 mg/kg and the “T.I. (therapeutic index = BWC50/ED50)” value is 3.5. In data set [2] (po), this molecule had a TD50 of 14 mg/kg.

As to `O=c1[nH]c(=O)n([C@H]2C[C@H](O)[C@@H](CO)O2)cc1F` [FdUrd, 2'-deoxy-5-fluorouridine], the TD50 in data set [2] (iv, CVI: continuous intravenous drip injection, read-out: BWC50 (dose of 50% inhibition of body weight gain)) stood at 0.7 mg/kg; in data set [2] (iv, iv: intravenous injection, read-out: BWC50 (dose of 50% inhibition of body weight gain)) it was 60 mg/kg. The entries for the “T.I. (therapeutic index = BWC50/ED50)” value in the data set on Yoshida sarcoma cells [5] (setting [7]) and in the data set with Yoshida sarcoma cells [5] (iv: intravenous injection) were 0.88 and 1.36, respectively. Besides, the ED50 was 0.8 mg/kg in the data set with Yoshida sarcoma cells [5] (setting [7]) and 44 mg/kg in the data set with Yoshida sarcoma cells [5] (iv: intravenous injection). Also, the “inhibition of the growth of tumor cells” value with tumor cells is given as “significantly inhibits the growth of tumor cells”. Further, the “therapeutic effect in vivo” value in data set [6] is reported as “can not produce a satisfactory therapeutic effect”.

In the case of `CCCOc1nc(=O)n([C@H]2C[C@H](O)[C@@H](CO)O2)cc1F` [Comparative Compound 2, 2'-deoxy-4-O-n-propyl-5-fluorouridine], in the data set with Yoshida sarcoma cells [1], the ED50 was found to be 34 mg/kg and the “T.I. (therapeutic index = BWC50/ED50)” value was found to be 1.1. Besides, the TD50 in data set [2] (po) stood at 37 mg/kg.
